Laboratory results taken from patent US10448639B2, “Fungicidal pyrazoles” (FMC CORPORATION, priority 2009, dated 2019).
Like-named read-outs stand apart in the source and are kept apart here.

Experiments:
[1] = system: Botrytis cinerea; assay: Test B: tomato Botrytis, preventive spray on tomato seedlings, visual disease rating; details: for pest or weed control at 200 µg/mL: Botrytis cinerea, in Solanum lycopersicum, 120 h; for Test B rating (% disease control): tomato Botrytis, preventive spray, 100 = 100% disease control, 0 = no control
[2] = system: Septoria nodorum; assay: Test F: Septoria glume blotch, preventive spray on wheat seedlings, visual disease rating; details: for pest or weed control at 200 µg/mL: Parastagonospora nodorum, in Triticum aestivum, 192 h; for Test F rating (% disease control): Septoria glume blotch on wheat, preventive spray, 100 = 100% disease control, 0 = no control
[3] = system: Septoria tritici; assay: Test G: wheat leaf blotch, preventive spray on wheat seedlings, visual disease rating; details: for pest or weed control at 200 µg/mL: Zymoseptoria tritici, in Triticum aestivum, 504 h; for Test G rating (% disease control): wheat leaf blotch, preventive spray, 100 = 100% disease control, 0 = no control
[4] = system: Erysiphe graminis f sp. tritici; assay: Test J: wheat powdery mildew, preventive spray on wheat seedlings, visual disease rating; details: for pest or weed control at 200 µg/mL: Blumeria graminis, in Triticum aestivum, 192 h; for Test J rating (% disease control): wheat powdery mildew, preventive spray, 100 = 100% disease control, 0 = no control
[5] = system: Puccinia recondita f. sp. tritici; assay: Test H: wheat leaf rust, curative spray on inoculated wheat seedlings, visual disease rating; details: for pest or weed control at 200 µg/mL: 144 h; for Test H rating (% disease control): wheat leaf rust, curative spray, 100 = 100% disease control, 0 = no control
[6] = system: Alternaria solani; assay: Test C: tomato early blight, preventive spray on tomato seedlings, visual disease rating; details: for pest or weed control at 200 µg/mL: Alternaria solani, in Solanum lycopersicum, 168 h; for Test C rating (% disease control): tomato early blight, preventive spray, 100 = 100% disease control, 0 = no control
From the text: General protocol for preparing test suspensions for Tests A-J: the test compounds were first dissolved in acetone in an amount equal to 3% of the final volume and then suspended at the desired concentration (in ppm) in acetone and purified water (50/50 mix by volume) containing 250 ppm of the surfactant Trem® 014 (polyhydric alcohol esters). The resulting test suspensions were then used in Tests A-J. Spraying a 200 ppm test suspension to the point of run-off on the test plants was the equivalent of a rate of 500 g/ha. Unless otherwise indicated, the rating values indicate a 200 ppm test suspension was used. (An asterisk “*” next to the rating value indicates a 40 ppm test suspension was used.)
The test suspension was sprayed to the point of run-off on tomato seedlings. The following day the seedlings were inoculated with a spore suspension of Alternaria solani (the causal agent of tomato early blight) and incubated in a saturated atmosphere at 27° C. for 48 h, and then moved to a growth chamber at 20° C. for 5 days, after which time visual disease ratings were made.

[7] = system: Puccinia recondita f. sp. tritici; assay: Test I: wheat leaf rust, preventive spray on wheat seedlings, visual disease rating; details: for pest or weed control at 200 µg/mL: 192 h; for Test I rating (% disease control): wheat leaf rust, preventive spray, 100 = 100% disease control, 0 = no control
[8] = read-out: Test B rating (% disease control)
[9] = read-out: Test F rating (% disease control)
[10] = read-out: Test G rating (% disease control)
[11] = read-out: Test J rating (% disease control)
[12] = read-out: Test H rating (% disease control)
[13] = read-out: Test C rating (% disease control)
[14] = read-out: Test I rating (% disease control)
[15] = read-out: Test B disease control rating
[16] = read-out: Test F disease control rating
[17] = read-out: Test G disease control rating
[18] = read-out: Test J disease control rating
[19] = read-out: Test H disease control rating
[20] = read-out: Test C disease control rating
[21] = read-out: Test I disease control rating

| SMILES | pest or weed control at 200 µg/mL [1, 8] [%] | pest or weed control at 200 µg/mL [2, 9] [%] | pest or weed control at 200 µg/mL [3, 10] [%] | pest or weed control at 200 µg/mL [4, 11] [%] | pest or weed control at 200 µg/mL [5, 12] [%] | pest or weed control at 200 µg/mL [6, 13] [%] | pest or weed control at 200 µg/mL [7, 14] [%] | pest or weed control at 200 µg/mL [1, 15] [%] | pest or weed control at 200 µg/mL [2, 16] [%] | pest or weed control at 200 µg/mL [3, 17] [%] | pest or weed control at 200 µg/mL [4, 18] [%] | pest or weed control at 200 µg/mL [5, 19] [%] | pest or weed control at 200 µg/mL [6, 20] [%] | pest or weed control at 200 µg/mL [7, 21] [%] | further results |
| --- | --- | --- | --- | --- | --- | --- | --- | --- | --- | --- | --- | --- | --- | --- | --- |
| Cc1nn(C)c(Nc2c(F)cccc2F)c1-c1ccc(F)cc1Cl [Compound 172, 4-(2-chloro-4-fluorophenyl)-N-(2,6-difluorophenyl)-1,3-dimethyl-1H-pyrazol-5-amine] | 100 | 87 | 100 | 100 | 0 | 100 | 99 |  |  |  |  |  |  |  |  |
| Cc1nn(C)c(Nc2ccc(F)cc2Cl)c1-c1ccc(F)cc1Cl [Compound 175, N,4-bis(2-chloro-4-fluorophenyl)-1,3-dimethyl-1H-pyrazol-5-amine] | 100 | 82 | 96 | 100 | 93 | 99 | 99 |  |  |  |  |  |  |  |  |
| Cc1nn(C)c(Nc2ccc(F)cc2Cl)c1-c1c(F)cccc1Cl [Compound 193, N-(2-chloro-4-fluorophenyl)-4-(2-chloro-6-fluorophenyl)-1,3-dimethyl-1H-pyrazol-5-amine] | 99 | 0 | 100 | 100 | 32 | 100 | 99 |  |  |  |  |  |  |  |  |
| Cc1nn(C)c(Oc2c(F)cc(C#N)cc2F)c1-c1ccc(F)cc1Br [Compound 232, 4-[[4-(2-bromo-4-fluorophenyl)-1,3-dimethyl-1H-pyrazol-5-yl]oxy]-3,5-difluorobenzonitrile] | 100 | 99 | 100 | 100 | 0 | 99 | 100 |  |  |  |  |  |  |  |  |
| Cc1nn(C)c(Nc2ccc(F)cc2Br)c1-c1ccc(F)cc1Cl [Compound 265, N-(2-bromo-4-fluorophenyl)-4-(2-chloro-4-fluorophenyl)-1,3-dimethyl-1H-pyrazol-5-amine] | 100 | 78 | 100 | 100 | 90 | 99 | 100 |  |  |  |  |  |  |  |  |
| Cc1nn(C)c(Nc2c(F)cc(F)cc2F)c1-c1ccc(F)cc1Br [Compound 266, 4-(2-bromo-4-fluorophenyl)-1,3-dimethyl-N-(2,4,6-trifluorophenyl)-1H-pyrazol-5-amine] | 100 | 98 | 100 | 100 | 0 | 100 | 100 |  |  |  |  |  |  |  |  |
| Cc1nn(C)c(Nc2c(F)cc(F)cc2Cl)c1-c1ccc(F)cc1Br [Compound 292, 4-(2-bromo-4-fluorophenyl)-N-(2-chloro-4,6-difluorophenyl)-1,3-dimethyl-1H-pyrazol-5-amine] | 100 | 96 | 100 | 100 | 92 | 99 | 100 |  |  |  |  |  |  |  |  |
| Cc1nn(C)c(Nc2c(F)cc(F)cc2Cl)c1-c1c(F)cccc1F [Compound 297, N-(2-chloro-4,6-difluorophenyl)-4-(2,6-difluorophenyl)-1,3-dimethyl-1H-pyrazol-5-amine] | 100 | 90 | 100 | 100 | 0 | 99 | 100 |  |  |  |  |  |  |  |  |
| Cc1nn(C)c(Nc2c(F)cc(Cl)cc2F)c1-c1ccc(C#N)cc1Cl [Compound 336, 3-chloro-4-[5-[(4-chloro-2,6-difluorophenyl)amino]-1,3-dimethyl-1H-pyrazol-4-yl]-benzonitrile] |  |  |  |  |  |  |  | 100 | 95 | 100 | 99 | 94 | 97 | 100 |  |
| Cc1nn(C)c(Nc2c(F)cc(F)cc2Cl)c1-c1ccc(F)cc1F [Compound 343, N-(2-chloro-4,6-difluorophenyl)-4-(2,4-difluorophenyl)-1,3-dimethyl-1H-pyrazol-5-amine] |  |  |  |  |  |  |  | 100 | 97 | 100 | 100 | 91 | 100 | 100 |  |
| Cc1nn(C)c(Nc2c(F)cc(Cl)cc2F)c1-c1ccc(F)cc1F [Compound 357, N-(4-chloro-2,6-difluorophenyl)-4-(2,4-difluorophenyl)-1,3-dimethyl-1H-pyrazol-5-amine] |  |  |  |  |  |  |  | 100 | 87 | 100 | 100 | 0 | 86 | 99 |  |
| Cc1nn(C)c(Oc2ccc(C#N)cc2Cl)c1-c1c(F)cccc1F [Compound 358, 3-chloro-4-[[4-(2,6-difluorophenyl)-1,3-dimethyl-1H-pyrazol-5-yl]oxy]benzonitrile] |  |  |  |  |  |  |  | 99 | 0 | 100 | 97 | 0 | 0 | 97 |  |
| Cc1nn(C)c(Nc2c(F)cc(Cl)cc2F)c1-c1ccc(F)cc1Br [Compound 360, 4-(2-bromo-4-fluorophenyl)-N-(4-chloro-2,6-difluorophenyl)-1,3-dimethyl-1H-pyrazol-5-amine] |  |  |  |  |  |  |  | 100 | 95 | 100 | 100 | 79 | 97 | 100 |  |
| Cc1nn(C)c(Oc2ccc(C#N)cc2F)c1-c1c(F)cccc1F [Compound 361, 4-[[4-(2,6-difluorophenyl)-1,3-dimethyl-1H-pyrazol-5-yl]oxy]-3-fluorobenzonitrile] |  |  |  |  |  |  |  | 100 | 0 | 100 | 100 | 0 | 90 | 100 |  |
| Cc1nn(C)c(Nc2c(F)cc(Br)cc2F)c1-c1ccc(F)cc1F [Compound 364, N-(4-bromo-2,6-difluorophenyl)-4-(2,4-difluorophenyl)-1,3-dimethyl-1H-pyrazol-5-amine] |  |  |  |  |  |  |  | 99 | 88 | 100 | 100 | 0 | 97 | 99 |  |
| Cc1nn(C)c(Nc2c(F)cc(Br)cc2F)c1-c1ccc(F)cc1Cl [Compound 365, N-(4-bromo-2,6-difluorophenyl)-4-(2-chloro-4-fluorophenyl)-1,3-dimethyl-1H-pyrazol-5-amine] |  |  |  |  |  |  |  | 100 | 64 | 100 | 100 | 74 | 99 | 100 |  |
| COc1cc(OC)cc(-c2c(C)nn(C)c2Oc2ccc(Cl)cc2)c1 [compound 16] |  |  |  |  |  |  |  |  |  |  |  |  |  |  | Test B rating (% disease control) [1]: 60%; Test F rating (% disease control) [2]: 0%; Test G rating (% disease control) [3]: 47%; Test J rating (% disease control) [4]: 0%; Test H rating (% disease control) [5]: 48%; Test C rating (% disease control) [6]: 0%; Test I rating (% disease control) [7]: 28% |
| Cc1nn(C)c(Nc2ccc(Cl)cc2)c1-c1ccc(F)cc1Cl [compound 19] |  |  |  |  |  |  |  |  |  |  |  |  |  |  | Test B rating (% disease control) [1]: 100%; Test F rating (% disease control) [2]: 0%; Test G rating (% disease control) [3]: 96%; Test J rating (% disease control) [4]: 98%; Test H rating (% disease control) [5]: 0%; Test C rating (% disease control) [6]: 85%; Test I rating (% disease control) [7]: 92% |
